According to patent US8637681B2, “Pyrrolyl substituted dihydroindol-2-one derivatives, preparation methods and uses thereof” (Qilu Pharmaceutical Co., Ltd., priority 2010, dated 2014):
Values joined by “and” are separate entries in the source; they are usually repeats but may differ in a detail not shown here. Equal entries are not always repeated.

Tests used:
[1] = Cytotoxicity test (SRB), A431; assay type: cell-based; settings: human, A431 skin cancer cells
Method: (§1) Cytotoxicity of the compounds of the present invention was tested with human non-small cell lung cancer cells A549, human cervical cancer Hela cells, human skin cancer cells A431. The test was performed by referring to the method described by Rusnak et al (Rusnak D. W., et al., Cell Prolif., 2007, 40, 580-94).
(§2) In Dulbecco's Modified Eagle Medium (DMEM) comprising 10% fetal bovine serum, 2 mM glutamine and non-essential amino acids, cells were cultured at 37° C. in 5% CO2 cell incubator. Trypsin/ethylenediamine tetraacetic acid (EDTA) were used to harvest cells in cell culture bottle. The cells were added to a 96-well cell culture plate, 4000/well (0.1 ml medium), adhering wall overnight, 0.1 ml of the diluted solution of the compounds to be tested was added, the final concentration of DMSO was 0.25%. The cell culture plate was incubated at 37° C., 5% CO2 conditions for 72 h. The change of cellular morphology was observed under microscope, and then 50 μl of 50% (mass/volume) trichloroacetic acid (TCA) was added to each well to fix cells. The final concentration of TCA was 10%. It stood for 5 min, than was placed in 4° C. refrigerator for 1 h, the wells of the culture plate were washed with deionized water for 5 times to remove TCA, drained, dried in air until no wet trace was observed. 100 μl of 0.4% (mass/volume) SRB was added to each well, stood at room temperature for 10 min. The liquid in each well was discarded, and then the wells were washed with 1% acetic acid for 5 times, dried in air, extracted with 150 μl of 10 mM Tris base (trihydroxymethylaminomethane, pH 10.5). The absorption at a wavelength of 540 nm was measured. The IC50 (μM) of the compound was calculated using Logit method.

[2] = Cytotoxicity test (SRB), Hela; assay type: cell-based; settings: human, Hela cervical cancer cells
Method: Cytotoxicity of the compounds of the present invention was tested with human non-small cell lung cancer cells A549, human cervical cancer Hela cells, human skin cancer cells A431. The test was performed by referring to the method described by Rusnak et al (Rusnak D. W., et al., Cell Prolif., 2007, 40, 580-94). […] Trypsin/ethylenediamine tetraacetic acid (EDTA) were used to harvest cells in cell culture bottle. The cells were added to a 96-well cell culture plate, 4000/well (0.1 ml medium), adhering wall overnight, 0.1 ml of the diluted solution of the compounds to be tested was added, the final concentration of DMSO was 0.25%. The cell culture plate was incubated at 37° C., 5% CO2 conditions for 72 h. […] The absorption at a wavelength of 540 nm was measured. The IC50 (μM) of the compound was calculated using Logit method.

[3] = Cytotoxicity test (SRB), A549; assay type: cell-based; settings: human, A549 non-small cell lung cancer cells
Method: as §1, §2

[4] = tested on: arterial ring angiogenesis in rats; assay: Inhibitory actions on arterial ring angiogenesis in rats; assay type: cell-based; settings: Rattus norvegicus, area covered by micrangiums vs control well, read-out: Inhibitory rate (%); for inhibition at 0.2 µg/mL: 0.2 μg/ml; for inhibition at 1 µg/mL: 1 μg/ml; for inhibition at 5 µg/mL: 5 μg/ml
Method: This experiment was conducted by referring to the method described by R. F. Nicosia et al (Nicosia, R. F., et al. Am J Pathol., 1997, 151, 1379-1386). Rats were executed by cervical dislocation. The thoracic aorta was carefully separated, and placed in a container with physiological saline. The excess tissues were carefully cut off. The blood vessels were cut with a pair of ophthalmic scissors to form 1 mm thick vascular ring slices. To a pre-cooled 96-well cell culture plate, one separated vascular ring was placed in the center of each well. 70 μl of pre-molten Matrigel was carefully added to cover the vascular ring, which was incubated at 37° C. for 1 h so as to solidify it. […] The sample was placed in incubator for conventional culture, and each compound was tested at least in two repeated wells, and each test was repeated twice. […] The fresh culture medium was replaced every 3 days, and the drug was changed at the same time. The survival status of vascular rings was observed under microscope, and pictures were taken at the same time. Image Pro Plus software was used to calculate the area covered by micrangiums. The average inhibition rate was calculated by using the formula: inhibition rate (%)=(area of control well−area of drug well)/area of control well×100%.

[5] = tested on: three kinds of tumor cells (A549, Hela, A431); assay: Cytotoxicity test, summary over the three tumor cell lines; assay type: cell-based, human; settings: compared with positive control Sunitinib
Method: as §1, §2

[6] = tested on: human colon cancer HT 29 transplanted tumor; assay: Nude mice transplanted tumor test; assay type: in vivo, female Balb/cA nude mice; parameters: key to d21 Vave ± SD (average tumor volume): tumor volume TV = ½×a×b² (a, b = major, minor diameter), in mm³; settings: for Dead animal number: dead/total animals; for Activity of inhibiting HT-29 transplanted tumor in vivo (in words): 80 mg/kg, compared with positive control Sunitinib; for inhibition in vivo at 80 mg/kg: Mus musculus, HT-29, po, 504 h, (1−T/C)×100%, read-out: Tumor inhibition rate d21 (%); for inhibition in vivo at 80 mg/kg / d21 Wave ± SD (average bodyweight of nude mice) / d21 Vave ± SD (average tumor volume) / d21 RTV ± SD (relative tumor volume): d21; for d0 Wave ± SD (average bodyweight of nude mice): d0, at grouping before administration (baseline); for d21 Vave ± SD (average tumor volume): HT 29 in nude mice, in mm³ (unit assumed); for d21 RTV ± SD (relative tumor volume): RTV=Vt/V0
Method: The nude mice transplanted tumor test used female Balb/cA nude mice, and tumor strains were human colon cancer HT 29 strains.
Under sterile condition, eugonic tumor tissues stage were cut into pieces of about 1.5 mm^3, and inoculated at right axillary fossa of the nude mice. The transplanted tumor diameter was measured by vernier caliper, and the animals were randomly grouped after the tumors grew to about 120 mm^3. The positive control group and the compounds group in a dosage of 80 mg/kg were administered intragastrically each day for consecutive 20 days. The negative control group was given equivalent amount of injection water containing 0.1% Tween 80. Tumor diameters and the bodyweight of mice were measured 2-3 times every week. The evaluation indexes observed in the test include relative tumor proliferation rate, bodyweight and general states. The formulation for calculating tumor volume (TV) is: TV=½×a×b^2, wherein a, b represent major diameter and minor diameter of tumor; Relative tumor volume (RTV) was calculated according the results of measurement by the following formula: RTV=Vt/V0, wherein V0 is tumor volume measured when dividing groups for administration, and Vt is tumor volume measured after each administration.

[7] = 80 mg/kg intragastrically each day for 20 days

SMILES	IC50 at 72 h [1]	IC50 at 72 h [2]	IC50 at 72 h [3]	inhibition at 0.2 µg/mL [4]	inhibition at 1 µg/mL [4]	inhibition at 5 µg/mL [4]	Cytotoxicity to tumor cells (in words) [5]	Dead animal number [6, 7]	Activity of inhibiting HT-29 transplanted tumor in vivo (in words) [6]	inhibition in vivo at 80 mg/kg [6, 7]	d0 Wave ± SD (average bodyweight of nude mice) [6]	d21 Wave ± SD (average bodyweight of nude mice) [6, 7]	d21 Vave ± SD (average tumor volume) [6, 7]	d21 RTV ± SD (relative tumor volume) [6, 7]	States of mice / toxicity signs (in words) [6, 7]	Bodyweight of mice after administration (in words) ([6]; mouse, in vivo)
Cc1[nH]c(/C=C2\C(=O)Nc3ccc(F)cc32)c(C)c1NC(=O)CN1CCOCC1 [Compound 19, N-{5-[5-fluoro-2-oxo-1,2-dihydro-indol-(3Z)-ylidenemethyl]-2,4-dimethyl-1H-pyrrol-3-yl}-2-(morpholin-4-yl)acetamide]	7.6 µM	> 30 µM	> 30 µM	89%	100%	100%	certain toxicity to some cells	–	–	–	–	–	–	–	–	–
Cc1[nH]c(/C=C2\C(=O)Nc3ccc(F)cc32)c(C)c1NC(=O)/C=C/CN(C)C [Compound 4, N-{5-[5-fluoro-2-oxo-1,2-dihydro-indol-(3Z)-ylidenemethyl]-2,4-dimethyl-1H-pyrrol-3-yl}-4-(N,N-dimethylamino)-(2E)-crotonamide]	> 30 µM	> 30 µM	> 30 µM	98%	100%	100%	–	0/6	inhibitory activity comparable to the positive control Sunitinib	91%	19.6 ± 0.22	19.6 ± 0.85	80.0 ± 33.2	0.65 ± 0.28	–	–
CCN1CCN(CC(=O)Nc2c(C)[nH]c(/C=C3\C(=O)Nc4ccc(F)cc43)c2C)CC1 [Compound 18, N-{5-[5-fluoro-2-oxo-1,2-dihydro-indol-(3Z)-ylidenemethyl]-2,4-dimethyl-1H-pyrrol-3-yl}-2-(4-ethylpiperazin-1-yl)acetamide]	> 30 µM	4.15 µM	> 30 µM	99%	100%	100%	–	0/6	–	90.1%	19.1 ± 0.48	18.9 ± 0.69	86.2 ± 45.3	0.73 ± 0.45	–	–
CCN1CCN(CCC(=O)Nc2c(C)[nH]c(/C=C3\C(=O)Nc4ccc(F)cc43)c2C)CC1 [Compound 10, N-{5-[5-fluoro-2-oxo-1,2-dihydro-indol-(3Z)-ylidenemethyl]-2,4-dimethyl-1H-pyrrol-3-yl}-3-(4-ethylpiperazin-1-yl)propionamide]	> 30 µM	> 30 µM	> 30 µM	98%	100%	100%	–	0/6	inhibitory activity comparable to the positive control Sunitinib	86.4%	18.7 ± 1.10	18.9 ± 0.97	112.8 ± 36.4	0.98 ± 0.34	–	–
Cc1[nH]c(/C=C2\C(=O)Nc3ccc(F)cc32)c(C)c1NC(=O)CN(C)C [Compound 22, N-{5-[5-fluoro-2-oxo-1,2-dihydro-indol-(3Z)-ylidenemethyl]-2,4-dimethyl-1H-pyrrol-3-yl}-2-(N,N-dimethylamino)acetamide]	> 30 µM	> 30 µM	> 30 µM	90%	100%	100%	–	0/6	–	88.1%	19.7 ± 0.38	20.1 ± 0.35	104.6 ± 43.6	0.86 ± 0.54	–	–
CCN(CC)CCNC(=O)c1c(C)[nH]c(/C=C2\C(=O)Nc3ccc(F)cc32)c1C [Sunitinib, reference compound]	1.93 µM	2.03 µM	11.5 µM	95%	100%	100%	–	one tumor-bearing mouse died and 1/6	–	88.5%	19.4 ± 0.44	–	129.6 ± 45.8	–	yellowing skin and blood in excrement	decreased significantly
Cc1[nH]c(/C=C2\C(=O)Nc3ccc(F)cc32)c(C)c1NC(=O)CCCN(C)C [Compound 5, N-{5-[5-fluoro-2-oxo-1,2-dihydro-indol-(3Z)-ylidenemethyl]-2,4-dimethyl-1H-pyrrol-3-yl}-4-(N,N-dimethylamino)butyramide]	> 30 µM	> 30 µM	> 30 µM	93%	100%	100%	–	0/6	–	86.6%	18.9 ± 1.00	18.6 ± 0.87	111.8 ± 28.2	0.96 ± 0.42	–	–
CCN(CC)CCC(=O)Nc1c(C)[nH]c(/C=C2\C(=O)Nc3ccc(F)cc32)c1C [Compound 1, N-{5-[5-fluoro-2-oxo-1,2-dihydro-indol-(3Z)-ylidenemethyl]-2,4-dimethyl-1H-pyrrol-3-yl}-3-(N,N-diethylamino)propionamide]	> 30 µM	> 30 µM	> 30 µM	99%	100%	100%	–	0/6	inhibitory activity comparable to the positive control Sunitinib	86.9%	18.6 ± 1.20	18.8 ± 2.97	102.8 ± 26.2	0.94 ± 0.12	–	–
